Experimental data as given in ChEMBL document CHEMBL1201862, “PubChem BioAssay data set” (2004).
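These data come from cells grown in 96-well plates and exposed to compound for 48 hours at five concentrations. The concentration for 50% growth inhibition is given as GI50.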 The source made the active and inactive calls. Rule as the data show it: active = GI50 up to about 1.1 µM and inactive = higher.

Experiments:
Assay in all cases: NCI-60 cell line screen, 48 h
UO-31 = system: UO-31
SF-539 = system: SF-539
MDA-MB-435 = system: MDA-MB-435
SN12C = system: SN12C
SR = system: SR
LOX IMVI = system: LOX IMVI
MDA-N = system: MDA-N
NCI-H23 = system: NCI-H23
PC-3 = system: PC-3
A498 = system: A498
SNB-19 = system: SNB-19
HCT-15 = system: HCT-15
OVCAR-4 = system: OVCAR-4
SK-MEL-2 = system: SK-MEL-2
A549 = system: A549
SK-OV-3 = system: SK-OV-3
SNB-75 = system: SNB-75
DU-145 = system: DU-145
U-251 = system: U-251
KM12 = system: KM12

Structure (SMILES)	GI50 (UO-31)	GI50 (SF-539)	GI50 (MDA-MB-435)	GI50 (SN12C)	GI50 (SR)	GI50 (LOX IMVI)	GI50 (MDA-N)	GI50 (NCI-H23)	GI50 (PC-3)	GI50 (A498)	GI50 (SNB-19)	GI50 (HCT-15)	GI50 (OVCAR-4)	GI50 (SK-MEL-2)	GI50 (A549)	GI50 (SK-OV-3)	GI50 (SNB-75)	GI50 (DU-145)	GI50 (U-251)	GI50 (KM12)
CCN(CC)C(=O)Cn1c2c(c3ccccc31)CCCC2	23.2 µM (inactive)	47.2 µM (inactive)	91.4 µM (inactive)	> 100 µM (inactive)	49.9 µM (inactive)	> 100 µM (inactive)	77.8 µM (inactive)	45.4 µM (inactive)	68.5 µM (inactive)	> 100 µM (inactive)	> 100 µM (inactive)	74.6 µM	> 10 µM (inactive)	> 100 µM (inactive)	61.8 µM (inactive)	> 100 µM (inactive)	–	–	–	–
CC(=O)c1ccc(-c2oc(-c3ccccc3)cc2-c2ccc3c(c2)OCO3)s1	> 100 µM (inactive)	> 100 µM (inactive)	3.07 µM (inactive)	> 100 µM (inactive)	> 100 µM (inactive)	–	–	19.1 µM (inactive)	–	> 100 µM (inactive)	–	–	–	–	–	> 100 µM (inactive)	> 100 µM (inactive)	> 100 µM (inactive)	> 100 µM (inactive)	–
Cc1ccccc1[P+](C)(c1ccccc1C)c1ccccc1C	17.7 µM (inactive)	16.5 µM (inactive)	4.54 µM (inactive)	14.7 µM (inactive)	–	14.1 µM (inactive)	–	10.3 µM (inactive)	14.3 µM (inactive)	18.5 µM (inactive)	8.69 µM (inactive)	19.9 µM	2.96 µM (inactive)	13.4 µM (inactive)	13.1 µM (inactive)	33.2 µM (inactive)	12.6 µM (inactive)	29.2 µM (inactive)	6.3 µM (inactive)	–
CCCCCCCCc1cc2c(O)c(c1)Cc1cc(CCCCCCCC)cc(c1O)Cc1cc(CCCCCCCC)cc(c1O)Cc1cc(CCCCCCCC)cc(c1O)Cc1cc(CCCCCCCC)cc(c1O)Cc1cc(CCCCCCCC)cc(c1O)C2	> 100 µM (inactive)	> 100 µM (inactive)	–	> 100 µM (inactive)	> 100 µM (inactive)	> 100 µM (inactive)	–	> 100 µM (inactive)	–	> 100 µM (inactive)	> 100 µM (inactive)	> 100 µM	–	> 100 µM (inactive)	> 100 µM (inactive)	> 100 µM (inactive)	> 100 µM (inactive)	–	> 100 µM (inactive)	> 100 µM (inactive)
O=c1oc(-c2ccccc2)c(-c2ccccc2)n1-c1ccc(Br)cc1	> 100 µM (inactive)	20.6 µM (inactive)	> 100 µM (inactive)	71.3 µM (inactive)	–	32.4 µM (inactive)	–	19.8 µM (inactive)	> 100 µM (inactive)	26.2 µM (inactive)	31.8 µM (inactive)	> 100 µM	27 µM (inactive)	> 100 µM (inactive)	54.5 µM (inactive)	31.1 µM (inactive)	12 µM (inactive)	21 µM (inactive)	24.2 µM (inactive)	37.4 µM (inactive)
O=C1CC[C@@H](NC(=O)Cc2ccccc2)C(=O)N1	> 100 µM (inactive)	> 100 µM (inactive)	–	> 100 µM (inactive)	> 100 µM (inactive)	> 100 µM (inactive)	–	> 100 µM (inactive)	–	> 100 µM (inactive)	> 100 µM (inactive)	–	> 100 µM (inactive)	> 100 µM (inactive)	> 100 µM (inactive)	> 100 µM (inactive)	> 100 µM (inactive)	–	> 100 µM (inactive)	> 100 µM (inactive)
CCc1cccc(C)c1NC(=O)CCc1nnc(SC)o1	> 100 µM (inactive)	> 100 µM (inactive)	–	> 100 µM (inactive)	0.622 µM (active)	> 100 µM (inactive)	–	> 100 µM (inactive)	–	> 100 µM (inactive)	> 100 µM (inactive)	> 100 µM	> 100 µM (inactive)	> 100 µM (inactive)	> 100 µM (inactive)	> 100 µM (inactive)	> 79.4 µM (inactive)	–	> 100 µM (inactive)	> 100 µM (inactive)
CO[C@H]1CC[C@]2(C)C3=CC[C@@]4(C)C(CC[C@@H]4C(C)CC[C@@H](C)C(C)C)C(=CCC2C1)O3 (stereo partly drawn)	> 25 µM (inactive)	> 25 µM (inactive)	–	> 25 µM (inactive)	> 25 µM (inactive)	> 25 µM (inactive)	–	> 7.91 µM (inactive)	–	> 25 µM (inactive)	> 25 µM (inactive)	> 25 µM	> 25 µM (inactive)	> 25 µM (inactive)	> 25 µM (inactive)	> 25 µM (inactive)	> 25 µM (inactive)	–	> 25 µM (inactive)	> 25 µM (inactive)
COC1=CC(=O)C2C(C1=O)C(c1ccccc1)[C@H]2C (stereo partly drawn)	> 100 µM (inactive)	> 100 µM (inactive)	–	–	31.6 µM (inactive)	> 100 µM (inactive)	–	> 100 µM (inactive)	–	> 100 µM (inactive)	> 100 µM (inactive)	18.9 µM	–	> 100 µM (inactive)	> 100 µM (inactive)	> 100 µM (inactive)	32.3 µM (inactive)	–	> 100 µM (inactive)	> 100 µM (inactive)
